Laboratory results from paper PMC5748751, “Study of Structure and Permeability Relationship of Flavonoids in Caco-2 Cells” (Nutrients, 2017).
Read-outs that look alike come from different tables or passages of the source. Marks after values point to notes of the source that are not given here.

Experiments:
[1] = Permeability (bidirectional transport) of flavonoids in Caco-2 cell monolayers; assay type: in vitro ADME; conditions: human; for Papp A→B at 60 min, 40 μM: Caco-2, apical to basolateral; for Papp A→B at 60 min, 40 μM / Papp B→A at 60 min, 40 μM: incubation 60 min, 37 °C, D-Hank's pH 7.4, mean ± SD, n = 3–6; for Papp B→A at 60 min, 40 μM: Caco-2, basolateral to apical; for Papp at 1 h, 40 μM: Caco-2 monolayer
Protocol: Caco-2 cells were cultured in MEM supplemented with 10% FBS, 1% NEAA, penicillin (100 U/mL) and streptomycin (100 μg/mL) in an atmosphere of 5% CO2 and 90% relative humidity at 37 °C. All cells used in this study were between passages 35 and 45 [16].
Caco-2 cells were seeded at a density of about 8 × 10^4 cells/cm^2 on a 12 wells Millicell hanging insert and left to grow for 19–21 days to reach confluence. Culture medium was replaced every other day for 14 days and daily thereafter. The integrity and transport ability of the Caco-2 cells monolayer were examined by measuring the trans-epithelial electrical resistance (TEER) with a Millicell voltammeter (Millicell ERS-2, Merck Millipore, Billerica, MA, USA) and running standard assays using Lucifer yellow CH as paracellular flux marker. […] Differentiation of Caco-2 cells was checked after 4 and 12 days by determining the activity of alkaline phosphatase with an assay kit (Nanjing Jiancheng Bioengineering Institute, Nanjing, China) and after 21 days transmission electron microscopy was performed on Caco-2 monolayer to evaluate differentiation.
The Caco-2 cell monolayer was washed with D-Hank’s buffer (pH 7.4). Then, the flavonoid (40 μM) was added to either the apical (AP, 0.4 mL) or basolateral (BL, 1.95 mL) side, while the receiving chamber contained the corresponding volume of D-Hank’s buffer and incubated for 1 h at 37 °C. Solutions from both AP and BL sides of Caco-2 cell monolayer were collected and immediately frozen, lyophilized and preserved at −80 °C for high performance liquid chromatography (HPLC) analysis. Papp was calculated from Equation (1), where ΔQ/Δt is the rate of the flavonoid on the accepting chamber (μM/s), A is the surface area of the hanging insert (cm^2) and C0 is the initial concentration of tested flavonoid in donating chamber (μM/mL).(1) Papp=ΔQ/Δt/AC0

[2] = Cell viability (MTT) assay of flavonoids in Caco-2 cells; assay type: cell-based; conditions: human
Protocol: The cytotoxicity of flavonoids and colchicine was evaluated by MTT assay. The cells were grown in 96-well plates at a density of 1 × 10^4 cells/well. After incubation with 40 μM flavonoid for 24 h, the cells were further incubated with an MTT solution (0.5 mg/mL) for 4 h at 37 °C. Finally, after removal of the supernatant, 150 μL dimethyl sulphoxide was added to each well to dissolve crystallized MTT. Absorbance was read at 570 nm with a multiskan spectrum microplate reader (Thermo Labsystems, Waltham, MA, USA). The percentage cell viability relative to that of the control cells was used as the cytotoxicity measure.

[3] = tested on: Caco-2 cell monolayer; assay: Cellular accumulation (CA) of flavonoids in Caco-2 cell monolayer; conditions: for CA A to B: accumulated in cell monolayer after transport apical to basolateral; for CA A to B / CA B to A: 40 μM, 1 h, normalized to cellular protein, mean ± SD, n = 3; for CA B to A: accumulated in cell monolayer after transport basolateral to apical; for CA: both sides (CA A to B and CA B to A)
[4] = Recovery (mass balance) of flavonoids during Caco-2 transport assay; assay type: in vitro ADME; conditions: human, Caco-2, mass balance, both sides of insert plus cells
Protocol: The recovery of the flavonoid glycosides during the transport assays was determined by mass balance and was measured as total amount of the flavonoids on both sides of the insert and in the Caco-2 cells.

[5] = Caco-2, pH 7.4, as stated in text, direction not specified (bilateral)
[6] = transport apical to basolateral, read-out: Recovery (A to B, %)
[7] = transport basolateral to apical, read-out: Recovery (B to A, %)

SMILES	Papp A→B at 60 min, 40 μM [1]	Papp B→A at 60 min, 40 μM [1]	CA A to B [3]	CA B to A [3]	Papp at 1 h, 40 μM [1, 5]	recovery [4, 6]	recovery [4, 7]	CA [3]	Papp at 1 h, 40 μM ([1]; pH 7.4, direction not specified (bilateral))	viability at 24 h, 40 μM [2]
COc1ccc(-c2oc3cc(O)cc(O)c3c(=O)c2O)cc1 [Compound 13, Kaempferide]	0.35 ± 0.06 ×10⁻⁶ cm/s	0.23 ± 0.03 ×10⁻⁶ cm/s	2.746 ± 0.478 ^b μmol/g	0.496 ± 0.249 µmol/g	–	–	–	–	–	102 ± 6.15%
COc1cc(-c2oc3cc(O)cc(O)c3c(=O)c2O)ccc1O [Compound 15, Isorhamnetin]	1.09 ± 0.02 ×10⁻⁶ cm/s	0.9 ± 0.42 ×10⁻⁶ cm/s	0.332 ± 0.066 ^a μmol/g	0.076 ± 0.048 µmol/g	–	–	–	–	–	93.6 ± 1.22%
C[C@@H]1O[C@@H](O[C@H]2[C@H](Oc3cc(O)c4c(c3)O[C@H](c3ccc(O)cc3)CC4=O)O[C@H](CO)[C@@H](O)[C@@H]2O)[C@H](O)[C@H](O)[C@H]1O [Compound 20, Naringin]	3.73 ± 0.73 ×10⁻⁶ cm/s	5.09 ± 1.55 ×10⁻⁶ cm/s	0.058 ± 0.013 µmol/g	0.068 ± 0.011 µmol/g	< 6 ×10⁻⁶ cm/s	93.2 ± 7.62%	82.9 ± 11%	–	–	99.1 ± 4.92%
O=C1c2c(O)cc(O)cc2OC(c2ccc(O)c(O)c2)C1O (centres unmarked) [Compound 22, Taxifolin]	6.32 ± 1.16 ×10⁻⁶ cm/s	26.1 ± 2.08 ×10⁻⁶ cm/s	–	–	> 20 ×10⁻⁶ cm/s	–	–	not detected	–	99.5 ± 2%
COc1ccc(-c2coc3cc(O)ccc3c2=O)cc1 [Compound 23, Formononetin]	17.4 ± 1.78 ×10⁻⁶ cm/s	18.3 ± 1.83 ×10⁻⁶ cm/s	3.819 ± 1.320 µmol/g	4.842 ± 0.424 µmol/g	> 10 ×10⁻⁶ cm/s	–	–	–	–	94.6 ± 3.6%
COc1cc2c(=O)c(-c3ccc(O)cc3)coc2cc1O [Compound 25, Glycitein]	12.4 ± 0.91 ×10⁻⁶ cm/s	6.23 ± 0.46 ×10⁻⁶ cm/s	1.821 ± 0.774 ^a μmol/g	0.158 ± 0.021 µmol/g	> 10 ×10⁻⁶ cm/s	–	–	–	–	98.3 ± 4.6%
O=c1c(-c2ccc(O)cc2)coc2cc(O)ccc12 [Compound 26, Daidzein]	33.9 ± 3.55 ×10⁻⁶ cm/s	42.2 ± 3.11 ×10⁻⁶ cm/s	0.500 ± 0.104 µmol/g	1.236 ± 0.117 ^b μmol/g	> 30 ×10⁻⁶ cm/s	–	–	–	–	105 ± 4.56%

More lines, main results first:

Papp A→B at 60 min, 40 μM [1]	Papp B→A at 60 min, 40 μM [1]	CA A to B [3]	CA B to A [3]	Papp at 1 h, 40 μM [1, 5]	recovery [4, 6]	recovery [4, 7]	CA [3]	Papp at 1 h, 40 μM ([1]; pH 7.4, direction not specified (bilateral))	SMILES	viability at 24 h, 40 μM [2]
31.1 ± 2.13 ×10⁻⁶ cm/s	30.5 ± 2.13 ×10⁻⁶ cm/s	1.415 ± 0.276 µmol/g	2.777 ± 0.220 ^b μmol/g	–	–	–	< 5 µmol/g	> 30 ×10⁻⁶ cm/s	O=c1c(-c2ccc(O)cc2)coc2cc(O)cc(O)c12 [Compound 27, Genistein]	103 ± 3.37%
11.1 ± 0.51 ×10⁻⁶ cm/s	10.7 ± 2.98 ×10⁻⁶ cm/s	6.766 ± 1.583 µmol/g	14.087 ± 1.287 ^b μmol/g	> 10 ×10⁻⁶ cm/s	–	–	> 6 µmol/g	–	COc1ccc(-c2coc3cc(O)cc(O)c3c2=O)cc1 [Compound 28, Biochanin A]	106 ± 6.44%
13.8 ± 0.73 ×10⁻⁶ cm/s	20 ± 1.29 ×10⁻⁶ cm/s	4.393 ± 0.790 µmol/g	8.804 ± 1.576 ^a μmol/g	–	–	–	–	–	O=C(/C=C/c1ccc(O)cc1)c1ccc(O)cc1O [Compound 29, Isoliquiritigenin]	99.2 ± 7.94%
4.25 ± 0.53 ×10⁻⁶ cm/s	5.08 ± 1.08 ×10⁻⁶ cm/s	0.096 ± 0.010 µmol/g	0.251 ± 0.012 µmol/g	< 6 ×10⁻⁶ cm/s	78.7 ± 1.3%	79.5 ± 1.24%	–	–	COc1ccc(CCC(=O)c2c(O)cc(O[C@@H]3O[C@H](CO)[C@@H](O)[C@H](O)[C@H]3O[C@@H]3O[C@@H](C)[C@H](O)[C@@H](O)[C@H]3O)cc2O)cc1O [Compound 30, Neohesperidin dihydrochalcone]	102 ± 6.35%
